Key:
[1] = tested on: DU145-TXR drug-resistant prostate cancer cells; experiment: MTT cytotoxicity assay, DU145-TXR cells; format: cell-based; settings: for cell toxicity: equivalent concentrations, 48 hours
Description: Cells were cultured at 37° C. in a humidified atmosphere containing 5% CO2. […] Cytotoxicity was calculated using the following equation: Cell Viability (%)=(ATest/Acontrol)×100%. Furthermore, IC50 was calculated with SigmaPlot software based on a dose-response curve.

[2] = tested on: DU145-TXR cells; experiment: Intracellular ROS, H2DCFDA dye method; format: cell-based; settings: 100 μM, positive control
Description: The generation of ROS was determined with a 2′,7′-dichlorodihydrofluorescein diacetate (H2DCFDA) dye method. Briefly, cells were seeded in a dark-walled, clear-bottomed 96-well plate with 50,000 cells per well and incubated at 37° C. overnight before study. Cells were incubated with 20 μM H2DCFDA in Hank's Buffered Salt Solution (HBSS, pH=7.4) for 30 minutes at 37° C. in the dark, and treated with different formulations.

[3] = tested on: DU145-TXR cells; experiment: Endoplasmic reticulum (ER) staining; settings: 0.5 μM, 8 hours

Structure (SMILES): [Cl][Cu][Cl] [CuCl2, copper chloride]
- cell toxicity [1]: did not show significant cell toxicity

Structure (SMILES): CCN(CC)C(=S)S [DDC-Na, sodium diethyldithiocarbamatetrihydrate]
- cell toxicity [1]: did not show significant cell toxicity

Structure (SMILES): OO [H2O2]
- ROS level [2]: increased

Structure (SMILES): CC(=O)O[C@H]1C(=O)[C@@]2(C)[C@H]([C@H](OC(=O)c3ccccc3)[C@]3(O)C[C@H](OC(=O)[C@H](O)[C@@H](NC(=O)c4ccccc4)c4ccccc4)C(C)=C1C3(C)C)[C@]1(OC(C)=O)CO[C@@H]1C[C@@H]2O [paclitaxel]
- IC50 ([1]; 48 hours of treatment): 2.58 µM
- ER structure (ER-specific dye staining) [3]: typical reticulate structure
